From US20220142169A1, “INHIBITING INSECTICIDE RESISTANCE AND MAKING SUSCEPTIBLE INSECTS HYPER-SUSCEPTIBLE TO PESTICIDES” (priority 2019, published 2022)

Assays:
GSK3β-PO = conditions: listed beside gene GSK3β-PO; cited from earlier work
[1] = test system: Drosophila melanogaster DDT-susceptible 91-C strain; assay: DDT mortality bioassay (glass vial, 24 h) after two days of inhibitor feeding; format: in vivo; conditions: for LD50: 24 h; for reduction of level of DDT resistance: optimal rearing condition; for decrease of DDT resistance: sub-optimal rearing condition
Excerpt: (§1) Flies of 1-2 day old (females and males) were introduced into a plastic vial (28 mm×95 mm height) and fed with inhibitors mixed in 5% sucrose solution. […] After fed with inhibitor solutions for two days, 20 females or males from either the 91-R or 91-C strains were used in all DDT bioassays. To explore the effect of inhibitors, fruit flies under two different rearing conditions: optimal rearing condition and sub-optimal rearing condition were used in our study. Under optimal rearing condition, 100 pairs of flies were maintained in bottles (containing 50 ml standard medium) and allowed for laying eggs for four days. All adults were then removed to make sure the suitable density of larva. Differently, adults were not removed until emerging of next generation under sub-optimal rearing condition. Simply, optimal rearing condition provided enough food for flies, but sub-optimal rearing condition faced certain food pressure.
(§2) Briefly, various concentrations of DDT dissolved in acetone were transferred into 20 ml transparent glass vials and each rolled on its side in a fume hood till the acetone evaporated. […] Vials were capped with cotton plugs moistened with a 5% sucrose solution in distilled water. The number of dead flies were recorded after 24 hours.
(§3) For RT-qPCR, statistical analysis was performed using Student's t-test to compare the results between 91-C and 91-R. For glycogen assay and body weight, One-way ANOVA was used, and means comparisons were made by using Student's t test (p<0.05) by using SPSS software (Version 19.0; SPSS Inc., USA). The median lifespan under fed or starvation conditions were calculated using the Probit function in SPSS (Version 19.0; SPSS Inc, USA). For mortality bioassay, Probit analysis was conducted by using SPSS software (Version 19.0; SPSS Inc, USA).

[2] = test system: Drosophila melanogaster DDT-resistant 91-R strain; assay: as above; format: in vivo; conditions: for LD50: 24 h; for ratio of LD50 optimal / sub-optimal rearing conditions / Resistance Ratio: DDT; for ratio of LD50 optimal / sub-optimal rearing conditions: no inhibitor; for reduction of level of DDT resistance: optimal rearing condition; for decrease of DDT resistance: sub-optimal rearing condition
Excerpt: as §1, §2, §3

Drosophila 91-R strain = assay: Cypermethrin mortality bioassay (glass vial, 24 h) after inhibitor feeding; format: in vivo, Drosophila melanogaster; conditions: for LD50: 24 h
Experimental: (§4) Adult flies were placed in bottles with instant drosophila blue diet (Formula 2-24®, carolina.com) made with inhibitor solutions for two days.
(§5) 200 μl of each concentration of solution as well as 200 μl acetone were transferred into 20 ml transparent glass vials and rolled on its side in a fume hood till the acetone completely evaporated. 20 flies of 91C, 91R and Canton-S stains were placed into vials for either female or male. Vials were capped with cotton plugs moistened with a 5% sucrose solution in distilled water. The number of dead flies were recorded after 24 hours. […] For each strain by sex combination, 8 concentrations of dosage were used including 0 control. A total of 8×3×20 flies were used for each of strain by sex combinations. For mortality bioassay, Probit analysis tool in SAS was used (SAS 9.4, SAS Ins, USA).

[3] = test system: Drosophila Canton-S strain; assay: as above; format: in vivo, Drosophila melanogaster; conditions: for LD50: 24 h
Experimental: as §4, §5

Drosophila 91-C strain = assay: as above; format: in vivo, Drosophila melanogaster; conditions: for LD50: 24 h
Experimental: as §4, §5

[4] = DDT LD50, 91-C♀, optimal dietary rearing, Hys 10 mM, LiCl 20 mM fed 2 days
[5] = DDT LD50, 91-C♂ (so in the source), sub-optimal dietary rearing
[6] = DDT LD50, 91-C♂, optimal dietary rearing
[7] = DDT LD50, 91-R♀, optimal dietary rearing
[8] = DDT LD50, 91-R♀, sub-optimal dietary rearing
[9] = DDT LD50, 91-R♂, optimal dietary rearing
[10] = DDT LD50, 91-R♂, sub-optimal dietary rearing

SMILES: NC1=NC(=O)/C(=C2\CCNC(=O)c3[nH]c(Br)cc32)N1 [Hymenialdesine]
- IC50 (GSK3β-PO): 0.01 µM

SMILES: NC1=N[C@H]2c3c([nH]c(Br)c3Br)C(=O)N3CCC[C@]23N1 [Dibromocantharelline]
- IC50 (GSK3β-PO): 3 µM

SMILES: Clc1ccc(C(c2ccc(Cl)cc2)C(Cl)(Cl)Cl)cc1 [DDT]
- LD50 [1, 4]: 51.59 μg/vial
- LD50 [1, 5]: 6.77 μg/vial
- LD50 [1, 6]: 19.81 μg/vial
- ratio of LD50 optimal / sub-optimal rearing condition ([1]; DDT, 91-C females, no inhibitor): 7.62
- LD50 [2, 7]: 136883.00 μg/vial
- LD50 [2, 8]: 523.34 μg/vial
- LD50 [2, 9]: 66073.00 μg/vial
- LD50 [2, 10]: 143.70 μg/vial
- ratio of LD50 optimal / sub-optimal rearing conditions ([2]; 91-R females): 261.56
- ratio of LD50 optimal / sub-optimal rearing conditions ([2]; 91-R males): 459.80

SMILES: [Cl-].[Li+] [LiCl, lithium chloride]
- IC50 (GSK3β-PO): 2000 µM
- Synergism Ratio (Drosophila 91-R strain; 91-R♀): 4.58
- LD50 (Drosophila 91-R strain; 91-R♀): 0.17 μg/vial
- Synergism Ratio (Drosophila 91-R strain; 91-R♂): 3.36
- LD50 (Drosophila 91-R strain; 91-R♂): 0.08 μg/vial
- Synergism Ratio ([3]; Canton-S ♀): 0.74
- LD50 ([3]; Canton-S ♀, Hys 10 mM, LiCl 20 mM in diet 2 days): 0.78 μg/vial
- Synergism Ratio ([3]; Canton-S ♂): 0.60
- LD50 ([3]; Canton-S ♂): 0.9 μg/vial
- Synergism Ratio (Drosophila 91-C strain; 91-C♀): 4.93
- LD50 (Drosophila 91-C strain; 91-C♀): 0.13 μg/vial
- Synergism Ratio (Drosophila 91-C strain; 91-C♂): 11.92
- LD50 (Drosophila 91-C strain; 91-C♂): 0.03 μg/vial
- reduction of level of DDT resistance ([1]; 91-C females): 4.2 fold
- decrease of DDT resistance ([1]; 91-C females): 2.3 fold
- reduction of level of DDT resistance ([1]; 91-C males): 2.7 fold
- decrease of DDT resistance ([1]; 91-C males): 2.3 fold
- LD50 ([1]; DDT LD50, 91-C♀ (so in the source), sub-optimal dietary rearing): 0.94 μg/vial
- LD50 [1, 4]: 12.17 μg/vial
- LD50 [1, 5]: 2.96 μg/vial
- LD50 [1, 6]: 7.22 μg/vial
- Resistance Ratio ([1]; DDT, 91-C♀ (so in the source), sub-optimal rearing): 2.26
- Resistance Ratio ([1]; DDT, 91-C♂ (so in the source), sub-optimal rearing): 2.29
- Resistance Ratio ([1]; DDT, 91-C♂, optimal rearing): 2.74
- Resistance Ratio ([1]; control LD50 vs inhibitor-fed, DDT, 91-C♀, optimal rearing): 4.24
- reduction of level of DDT resistance ([2]; 91-R females): 1.6 fold
- decrease of DDT resistance ([2]; 91-R females): 3.3 fold
- reduction of level of DDT resistance ([2]; 91-R males): 20.5 fold
- decrease of DDT resistance ([2]; 91-R males): no significant decreased in resistance levels
- resistance ratio reduction / decrease of DDT resistance ([2]; 91-R, both sexes, optimal rearing conditions): 1.6-20.5 fold
- LD50 [2, 7]: 83375.00 μg/vial
- LD50 [2, 8]: 157.63 μg/vial
- LD50 [2, 9]: 3224.00 μg/vial
- LD50 [2, 10]: 126.69 μg/vial
- Resistance Ratio ([2]; 91-R♀, optimal rearing): 1.64
- Resistance Ratio ([2]; 91-R♀, sub-optimal rearing): 3.37
- Resistance Ratio ([2]; 91-R♂, optimal rearing): 20.49
- Resistance Ratio ([2]; 91-R♂, sub-optimal rearing): 1.13

SMILES: NN.O=S(=O)(O)O [Hys, hydrazine sulphate]
- Synergism Ratio (Drosophila 91-R strain; 91-R♀): 3.87
- Synergism Ratio (Drosophila 91-R strain; 91-R♂): 3.88
- Synergism Ratio ([3]; Canton-S ♀): 3.58
- Synergism Ratio ([3]; Canton-S ♂): 3.78
- Synergism Ratio (Drosophila 91-C strain; 91-C♀): 4.39
- Synergism Ratio (Drosophila 91-C strain; 91-C♂): 5.73
